From US20220073536A1 (Rigel Pharmaceuticals, Inc., priority 2003, published 2022) come the findings set out here.

SMILES strings stand for the structures. pIC50: −log10 of the molar value.

The first test deals with cultured human mast cells (CHMC). Kind of test: CHMC low cell density IgE activation: tryptase assay. Type of test: cell-based. Conditions: Homo sapiens, Mast cell, low cell density CHMC, IgE activation, tryptase, 3 pt; read-out: LD Tryptase, CHMC, IgE, 3 pt. The essentials: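 Anti-IgE-driven degranulation of cultured human mast cells at low density, 1000–1500 cells/well, was induced over 30 min at 37 °C. It was scored by supernatant tryptase activity on a fluorogenic substrate.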
In the case of `CCCn1ncc2cc(Nc3ncc(F)c(Nc4ccc(Cl)c(Cl)c4)n3)ccc21` [Compound 703, N4-(3,4-Dichlorophenyl)-5-fluoro-N2-(1-n-propylindazol-5-yl)-2,4-pyrimidinediamine], the pIC50 is greater than 5.00.

As for `CCCn1ncc2ccc(Nc3ncc(F)c(Nc4ccc(Cl)c(Cl)c4)n3)cc21` [Compound 707, N4-(3,4-Dichlorophenyl)-5-fluoro-N2-(1-n-propylindazol-6-yl)-2,4-pyrimidinediamine], the pIC50 was greater than 5.00.

On to `CCCCn1ncc2cc(Nc3ncc(F)c(Nc4ccc(OC)c(Cl)c4)n3)ccc21` [Compound 710, N2-(1-n-Butylindazol-5-yl)-N4-(3-chloro-4-methoxyphenyl)-5-fluoro-2,4-pyrimidinediamine], for which the pIC50 was greater than 5.00.

Regarding `CCCCn1ncc2cc(Nc3ncc(F)c(Nc4ccc(Cl)c(Cl)c4)n3)ccc21` [Compound 711, N2-(1-n-Butylindazol-5-yl)-N4-(3,4-dichlorophenyl)-5-fluoro-2,4-pyrimidinediamine], the pIC50 was greater than 5.00.

Turning to `CCCCn1ncc2cc(Nc3ncc(F)c(Nc4ccc(F)c(OC)c4)n3)ccc21` [Compound 713, N2-(1-n-Butylindazol-5-yl)-5-fluoro-N4-(4-fluoro-3-methoxyphenyl)-2,4-pyrimidinediamine], the pIC50 is greater than 5.00.

For `CCCCn1ncc2ccc(Nc3ncc(F)c(Nc4ccc(Cl)c(Cl)c4)n3)cc21` [Compound 715, N2-(1-n-Butylindazol-6-yl)-N4-(3,4-dichlorophenyl)-5-fluoro-2,4-pyrimidinediamine], the pIC50 is greater than 5.00.

On to `CCCCn1ncc2ccc(Nc3ncc(F)c(Nc4ccc(F)c(OC)c4)n3)cc21` [Compound 717, N2-(1-n-Butylindazol-6-yl)-5-fluoro-N4-(4-fluoro-3-methoxyphenyl)-2,4-pyrimidinediamine], for which the pIC50 is greater than 5.00.

Consider `COc1ccc(Nc2nc(Nc3ccc4c(cnn4CC4CCCCC4)c3)ncc2F)cc1Cl` [Compound 718, N4-(3-Chloro-4-methoxyphenyl)-N2-[1-(cyclohexylmethyl)indazol-5-yl]-5-fluoro-2,4-pyrimidinediamine], for which the pIC50 is greater than 5.00.

For `Fc1cnc(Nc2ccc3c(cnn3CC3CCCCC3)c2)nc1Nc1ccc(Cl)c(Cl)c1` [Compound 719, N2-[1-(Cyclohexylmethyl)indazol-5-yl]-N4-(3,4-dichlorophenyl)-5-fluoro-2,4-pyrimidinediamine], the pIC50 is greater than 5.00.

For `COc1cc(Nc2nc(Nc3ccc4c(cnn4CC4CCCCC4)c3)ncc2F)ccc1F` [Compound 721, N2-[1-(Cyclohexylmethyl)indazol-5-yl)-5-fluoro-N4-(4-fluoro-3-methoxyphenyl)-2,4-pyrimidinediamine], the pIC50 was greater than 5.00.

For `COc1ccc(Nc2nc(Nc3ccc4cnn(CC5CCCCC5)c4c3)ncc2F)cc1Cl` [Compound 722, N4-(3-Chloro-4-methoxyphenyl)-N2-[1-(cyclohexylmethyl)indazol-6-yl]-5-fluoro-2,4-pyrimidinediamine], the pIC50 was greater than 5.00.

On to `Fc1cnc(Nc2ccc3cnn(CC4CCCCC4)c3c2)nc1Nc1ccc(Cl)c(Cl)c1` [Compound 723, N2-[1-(Cyclohexylmethyl)indazol-6-yl]-N4-(3,4-dichlorophenyl)-5-fluoro-2,4-pyrimidinediamine], for which the pIC50 was less than 5.00.

Consider `COc1cc(Nc2nc(Nc3ccc4cnn(CC5CCCCC5)c4c3)ncc2F)ccc1F` [Compound 725, N2-[1-(Cyclohexylmethyl)indazol-6-yl)-5-fluoro-N4-(4-fluoro-3-methoxyphenyl)-2,4-pyrimidinediamine], for which the pIC50 is greater than 5.00.

With `COc1ccc(Nc2nc(Nc3ccc4c(cnn4CC4CCC4)c3)ncc2F)cc1Cl` [Compound 726, N4-(3-Chloro-4-methoxyphenyl)-N2-[1-(cyclobutylmethyl)indazol-5-yl]-5-fluoro-2,4-pyrimidinediamine], the pIC50 is greater than 5.00.

With `Fc1cnc(Nc2ccc3c(cnn3CC3CCC3)c2)nc1Nc1ccc(Cl)c(Cl)c1` [Compound 727, N2-[1-(Cyclobutylmethyl)indazol-5-yl]-N4-(3,4-dichlorophenyl)-5-fluoro-2,4-pyrimidinediamine], the pIC50 was greater than 5.00.

Take `COc1ccc(Nc2nc(Nc3ccc4cnn(CC5CCC5)c4c3)ncc2F)cc1Cl` [Compound 730, N4-(3-Chloro-4-methoxyphenyl)-N2-[1-(cyclobutylmethyl)indazol-6-yl]-5-fluoro-2,4-pyrimidinediamine]: the pIC50 was greater than 5.00.

As for `Fc1cnc(Nc2ccc3cnn(CC4CCC4)c3c2)nc1Nc1ccc(Cl)c(Cl)c1` [Compound 731, N2-[1-(Cyclobutylmethyl)indazol-6-yl]-N4-(3,4-dichlorophenyl)-5-fluoro-2,4-pyrimidinediamine], the pIC50 was greater than 5.00.

On to `Fc1cnc(Nc2ccc3c(cnn3CC3CC3)c2)nc1Nc1ccc(Cl)c(Cl)c1` [Compound 735, N2-[1-(Cyclopropylmethyl)indazol-5-yl]-N4-(3,4-dichlorophenyl)-5-fluoro-2,4-pyrimidinediamine], for which the pIC50 was greater than 5.00.

Still in this test, the particulars now being: Homo sapiens, Mast cell, low cell density CHMC, IgE activation, tryptase, 8 pt; read-out: LD Tryptase, CHMC, IgE, 8 pt.
Consider `CCCn1ncc2cc(Nc3ncc(F)c(Nc4ccc(OC)c(Cl)c4)n3)ccc21` [Compound 702, N4-(3-Chloro-4-methoxyphenyl)-5-fluoro-N2-(1-n-propylindazol-5-yl)-2,4-pyrimidinediamine], for which the pIC50 is greater than 5.00.

For `CCCn1ncc2cc(Nc3ncc(F)c(Nc4ccc5c(c4)NC(=O)C(C)(C)O5)n3)ccc21` [Compound 704, N4-(2,2-Dimethyl-3-oxo-4H-benz[1,4]oxazin-6-yl)-5-fluoro-N2-(1-n-propylindazol-5-yl)-2,4-pyrimidinediamine], the pIC50 was greater than 5.00.

For `CCCn1ncc2cc(Nc3ncc(F)c(Nc4ccc(F)c(OC)c4)n3)ccc21` [Compound 705, 5-Fluoro-N4-(4-fluoro-3-methoxyphenyl)-N2-(1-n-propylindazol-5-yl)-2,4-pyrimidinediamine], the pIC50 was greater than 5.00.

Consider `CCCn1ncc2ccc(Nc3ncc(F)c(Nc4ccc(Cl)c(Cl)c4)n3)cc21` [Compound 707, N4-(3,4-Dichlorophenyl)-5-fluoro-N2-(1-n-propylindazol-6-yl)-2,4-pyrimidinediamine], for which the pIC50 was greater than 5.00.

For `CCCn1ncc2ccc(Nc3ncc(F)c(Nc4ccc5c(c4)NC(=O)C(C)(C)O5)n3)cc21` [Compound 708, N4-(2,2-Dimethyl-3-oxo-4H-benz[1,4]oxazin-6-yl)-5-fluoro-N2-(1-n-propylindazol-6-yl)-2,4-pyrimidinediamine], the pIC50 is greater than 5.00.

With `CCCn1ncc2ccc(Nc3ncc(F)c(Nc4ccc(F)c(OC)c4)n3)cc21` [Compound 709, 5-Fluoro-N4-(4-fluoro-3-methoxyphenyl)-N2-(1-n-propylindazol-6-yl)-2,4-pyrimidinediamine], the pIC50 is greater than 5.00.

Regarding `CCCCn1ncc2cc(Nc3ncc(F)c(Nc4ccc5c(c4)NC(=O)C(C)(C)O5)n3)ccc21` [Compound 712, N2-(1-n-Butylindazol-5-yl)-N4-(2,2-dimethyl-3-oxo-4H-benz[1,4]oxazin-6-yl)-5-fluoro-2,4-pyrimidinediamine], the pIC50 was greater than 5.00.

Regarding `CCCCn1ncc2cc(Nc3ncc(F)c(Nc4ccc(F)c(OC)c4)n3)ccc21` [Compound 713, N2-(1-n-Butylindazol-5-yl)-5-fluoro-N4-(4-fluoro-3-methoxyphenyl)-2,4-pyrimidinediamine], the pIC50 is greater than 5.00.

Take `CCCCn1ncc2ccc(Nc3ncc(F)c(Nc4ccc(OC)c(Cl)c4)n3)cc21` [Compound 714, N2-(1-n-Butylindazol-6-yl)-N4-(3-chloro-4-methoxyphenyl)-5-fluoro-2,4-pyrimidinediamine]: the pIC50 was greater than 5.00.

Turning to `CCCCn1ncc2ccc(Nc3ncc(F)c(Nc4ccc5c(c4)NC(=O)C(C)(C)O5)n3)cc21` [Compound 716, N2-(1-n-Butylindazol-6-yl)-N4-(2,2-dimethyl-3-oxo-4H-benz[1,4]oxazin-6-yl)-5-fluoro-2,4-pyrimidinediamine], the pIC50 was greater than 5.00.

`CC1(C)Oc2ccc(Nc3nc(Nc4ccc5c(cnn5CC5CCCCC5)c4)ncc3F)cc2NC1=O` [Compound 720, N2-[1-(Cyclohexylmethyl)indazol-5-yl]-N4-(2,2-dimethyl-3-oxo-4H-benz[1,4]oxazin-6-yl)-5-fluoro-2,4-pyrimidinediamine]: the pIC50 was greater than 5.00.

As for `COc1ccc(Nc2nc(Nc3ccc4cnn(CC5CCCCC5)c4c3)ncc2F)cc1Cl` [Compound 722, N4-(3-Chloro-4-methoxyphenyl)-N2-[1-(cyclohexylmethyl)indazol-6-yl]-5-fluoro-2,4-pyrimidinediamine], the pIC50 is greater than 5.00.

On to `CC1(C)Oc2ccc(Nc3nc(Nc4ccc5cnn(CC6CCCCC6)c5c4)ncc3F)cc2NC1=O` [Compound 724, N2-[1-(Cyclohexylmethyl)indazol-6-yl]-N4-(2,2-dimethyl-3-oxo-4H-benz[1,4]oxazin-6-yl)-5-fluoro-2,4-pyrimidinediamine], for which the pIC50 was greater than 5.00.

Consider `CC1(C)Oc2ccc(Nc3nc(Nc4ccc5c(cnn5CC5CCC5)c4)ncc3F)cc2NC1=O` [Compound 728, N2-[1-(Cyclobutylmethyl)indazol-5-yl]-N4-(2,2-dimethyl-3-oxo-4H-benz[1,4]oxazin-6-yl)-5-fluoro-2,4-pyrimidinediamine], for which the pIC50 was greater than 5.00.

As to `CC1(C)Oc2ccc(Nc3nc(Nc4ccc5cnn(CC6CCC6)c5c4)ncc3F)cc2NC1=O` [Compound 732, N2-[1-(Cyclobutylmethyl)indazol-6-yl]-N4-(2,2-dimethyl-3-oxo-4H-benz[1,4]oxazin-6-yl)-5-fluoro-2,4-pyrimidinediamine], the pIC50 was greater than 5.00.

As for `COc1ccc(Nc2nc(Nc3ccc4c(cnn4CC4CC4)c3)ncc2F)cc1Cl` [Compound 734, N4-(3-Chloro-4-methoxyphenyl)-N2-[1-(cyclopropylmethyl)indazol-5-yl]-5-fluoro-2,4-pyrimidinediamine], the pIC50 is greater than 5.00.

The same test, now with this note: low cell density CHMC, IgE activation, tryptase, 3 pt; read-out: LD Tryptase, CHMC, IgE, 3 pt.
Regarding `COc1cc(Nc2nc(Nc3ccc4cnn(CC5CCC5)c4c3)ncc2F)ccc1F` [Compound 733, N2-[1-(Cyclobuylmethyl)indazol-6-yl)-5-fluoro-N4-(4-fluoro-3-methoxyphenyl)-2,4-pyrimidinediamine], the pIC50 is greater than 5.00.

The same test, now with this note: low cell density CHMC, IgE activation, tryptase, 8 pt; read-out: LD Tryptase, CHMC, IgE, 8 pt.
As to `COc1cc(Nc2nc(Nc3ccc4c(cnn4CC4CCC4)c3)ncc2F)ccc1F` [Compound 729, N2-[1-(Cyclobuylmethyl)indazol-5-yl)-5-fluoro-N4-(4-fluoro-3-methoxyphenyl)-2,4-pyrimidinediamine], the pIC50 was greater than 5.00.
